# In patent US10093627B2, “Tetrahydroquinoline derivatives and their use as Epac inhibitors” (Institut National de la Sante et de la Recherche Medicale …, priority 2012, dated 2018):
# What was measured:
# [1] = tested on: Iso-induced ANF-Luc transcriptional activation; assay: ANF-Luc transcriptional activation (Firefly luciferase assay) in rat neonatal cardiomyocytes; assay type: cell-based; conditions: CE3F4 20 μM, 30 min pretreatment; Iso 10 μM, 8 h; FIG. 4A
# Procedure: ANF and NFAT promoters were fused to the Firefly luciferase gene (ANF-Luc) (NFAT-Luc) to detect ANF and NFAT by Firefly Luciferase assay (see Materiel and Methods).
# Rat neonatal cardiomyocytes were cotransfected with ANF-Luc and Epac1 or empty vector pcDNA3 as control. One day after transfection, cells were pretreated or not with CE3F4 (20 μM) for 30 min and stimulated or not with Iso (10 μM) for 8 h. Cells were then assayed for Luciferase activity. B) Iso-induced NFAT-Luc Transcriptional Activation is Blocked by CE3F4: Neonatal cardiomyocytes were transfected with NFAT-Luc. One day later cells were pretreated or not with CE3F4 (20 μM) for 30 min and stimulated or not with Iso (10 μM) for 8 h. The day after, cells were assayed for Luciferase activity.
# Results were normalized to control for each experiment, and were expressed as means±S.E.M of at 4 (FIG. 4A) or 5 (FIG. 4B) independent experiments performed in triplicates.
# The rat ANF promoter fused to the Firefly luciferase reporter gene (ANF-Luc) by Dr K. Knowlton, Epac and Rap1 plasmid construct (Epac1^WT) by Drs J. L. Bos and J. de Gunzburg, respectively. The Firefly luciferase reporter plasmid driven by four NFAT consensus binding sites (NFAT-Luc) was purchased from Stratagene. […]
# Cells were lysed, and luminescence was detected using the Luciferase Assay System (Promega) according to the manufacturer's instructions with Tecan Infinite.
# [2] = target: T1, Epac2(AB) (Homo sapiens, UniProt Q8WZA2); assay: In vitro GEF activity (initial velocity of GDP exchange on Rap1A) of Epac2(AB); assay type: biochemical; conditions: 50 μM racemic CE3F4; agonist 50 μM 007 or 300 μM cAMP; FIG. 6A
# T1 construct: Human Epac2(AB) (amino acids 43-1011) carries both the CNB-A and the CNB-B domains; made in house; host or cells: Escherichia coli Rosetta 2(DE3)
# T1 sequence (Q8WZA2 43-1011): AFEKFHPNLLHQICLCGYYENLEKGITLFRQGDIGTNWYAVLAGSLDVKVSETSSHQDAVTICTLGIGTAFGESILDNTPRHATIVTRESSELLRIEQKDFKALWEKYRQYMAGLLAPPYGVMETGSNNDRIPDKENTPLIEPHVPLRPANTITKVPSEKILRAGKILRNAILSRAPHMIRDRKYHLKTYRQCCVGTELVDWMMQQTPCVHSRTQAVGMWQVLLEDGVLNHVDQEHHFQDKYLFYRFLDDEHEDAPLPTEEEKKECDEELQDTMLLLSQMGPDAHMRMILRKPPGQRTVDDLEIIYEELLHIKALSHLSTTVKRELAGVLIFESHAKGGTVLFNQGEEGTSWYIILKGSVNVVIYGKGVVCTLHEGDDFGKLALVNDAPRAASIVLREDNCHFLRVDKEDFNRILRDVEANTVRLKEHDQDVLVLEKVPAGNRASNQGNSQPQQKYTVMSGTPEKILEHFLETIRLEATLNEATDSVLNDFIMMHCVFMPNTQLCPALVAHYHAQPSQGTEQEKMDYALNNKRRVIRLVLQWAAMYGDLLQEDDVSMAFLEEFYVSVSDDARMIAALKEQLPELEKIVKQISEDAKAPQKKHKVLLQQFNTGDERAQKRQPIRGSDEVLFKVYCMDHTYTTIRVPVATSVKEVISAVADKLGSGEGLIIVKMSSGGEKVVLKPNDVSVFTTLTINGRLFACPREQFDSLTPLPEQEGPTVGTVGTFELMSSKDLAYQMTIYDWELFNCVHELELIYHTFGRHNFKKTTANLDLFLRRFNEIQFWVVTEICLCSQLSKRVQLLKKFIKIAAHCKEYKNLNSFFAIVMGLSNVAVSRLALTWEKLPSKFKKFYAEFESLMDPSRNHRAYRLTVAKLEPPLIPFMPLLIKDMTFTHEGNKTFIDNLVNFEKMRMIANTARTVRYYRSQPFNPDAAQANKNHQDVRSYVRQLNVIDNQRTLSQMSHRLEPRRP
# Excerpt: Human Epac2(AB) (amino acids 43-1011) carries both the CNB-A and the CNB-B domains. Human Epac2(B) (amino acids 283-1011) lacks the first 283 amino acids of Epac2. It is therefore deleted of its CNB-A and DEP domains, but retains the CNB-B domain and the full catalytic region. Epac2(AB) was obtained by HindIII/NotI restriction and Epac2(B) was obtained by Ssp1/Not1 restriction of a human Epac2A cDNA (a gift from Ann M Graybiel, Department of Brain and Cognitive Sciences, MIT, Cambridge). Both cDNA fragments were inserted into pET41a (Novagen), expressed in Escherichia coli Rosetta 2(DE3) (Novagen), and the GST-tagged fusion proteins were purified by nickel-nitrilotriacetic acid beads (Qiagen), as described in D. Courilleau, et al., Identification of a tetrahydroquinoline analog as a pharmacological inhibitor of the cAMP-binding protein Epac, J. Biol. Chem. 287 (2012) 44192-44202).
# In vitro GDP exchange catalyzed by Epac was measured using purified recombinant Epac isoforms and Rap1A loaded with Bodipy-GDP, as described in D. Courilleau, et al (above mentioned). […] The release of Bodipy-GDP was measured in real time as the decay of fluorescence. […] The initial velocity (Vi) of GDP exchange on Rap1 was calculated as described in D. Courilleau et al.).
# Data are expressed as mean±S.D. Differences in quantitative variables were examined by unpaired one- or two-tailed Student's t test. […]
smiles,measurement,setting,value
CC1CCc2c(cc(Br)c(F)c2Br)N1C=O (racemic) [CE3F4],Effect on Iso-induced ANF-Luc gene transcriptional activity,[1],significantly inhibited
same,"Inhibitory effect on GEF activity of Epac2(AB), compared with Epac2(B)",[2],no significant difference
